The values below come from paper PMC6002460, “Pharmacological evaluation of new constituents of “Spice”: synthetic cannabinoids based on indole, indazole, benzimidazole and carbazole scaffolds” (Forensic Toxicology, 2018).

Where two headings read alike, the source gives them in different places.

In one assay the target is T1, human CB2 receptor (Homo sapiens, UniProt P34972).
T1 construct: expressed in transfected cells; host or cells: CHO cells (membrane preparations)
The assay can be described thus: biochemical. In kind it is binding. To be noted: [3H]CP55,940 0.1 nM, CHO cell membranes; read-out: Ki ± SEM Human CB2.

Another assay deals with T2, human GPR55 (Homo sapiens, UniProt Q9Y2T6).
T2 construct: host or cells: CHO cells
Nature of the assay: β-Arrestin PathHunter assay, recombinant CHO cells expressing GPR55. In kind it is cell-based. To be noted: for Human GPR55 % activation / Human GPR55 % inhibition: value in parentheses; for Human GPR55 % inhibition: antagonist mode versus LPI 1 µM. The procedure:
(§1) β-Arrestin assays were performed in recombinant CHO cells expressing either the human GPR18 or the human GPR55 as described before using the β-galactosidase enzyme fragment complementation technology (β-arrestin PathHunter™ assay; DiscoverX, Fremont, CA, USA).
(§2) The orphan receptors GPR18 and GPR55 can interact with certain natural and synthetic cannabinoids. […] Therefore, we investigated the new series of indole, indazole, benzimidazole and carbazole-derived structures in β-arrestin assays at GPR18 and GPR55 (Table 2). […] For the lipophilic substitutions, the following rank order of potency was observed: ethyl > methyl > chloro > fluoro. Therefore, it can be concluded that a lipophilic substitution in position 4 of the naphthyl residue was a requirement for GPR55 inhibition.

For the next assay, the target named is T3, human CB1 receptor (Homo sapiens, UniProt P21554).
T3 construct: expressed in transfected cells; host or cells: CHO cells (membrane preparations)
Nature of the assay: biochemical. It is filed as binding. Particulars: [3H]CP55,940 0.1 nM, CHO cell membranes; read-out: Ki ± SEM Human CB1.

For the next assay, the target named is T4, human GPR18 (Homo sapiens, UniProt Q14330).
T4 construct: host or cells: CHO cells
T4 sequence (Q14330 1-331): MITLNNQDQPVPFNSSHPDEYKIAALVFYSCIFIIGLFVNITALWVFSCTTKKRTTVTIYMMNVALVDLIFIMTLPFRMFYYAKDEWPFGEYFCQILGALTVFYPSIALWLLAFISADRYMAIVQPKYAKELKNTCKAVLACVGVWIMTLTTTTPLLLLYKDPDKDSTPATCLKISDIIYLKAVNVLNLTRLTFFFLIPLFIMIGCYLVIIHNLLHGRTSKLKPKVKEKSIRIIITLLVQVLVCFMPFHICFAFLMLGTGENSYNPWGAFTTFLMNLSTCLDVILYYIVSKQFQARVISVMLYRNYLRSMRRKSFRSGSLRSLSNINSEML
Nature of the assay: β-Arrestin PathHunter assay, recombinant CHO cells expressing GPR18. It is filed as cell-based. To be noted: for Human GPR18 % activation / Human GPR18 % inhibition: value in parentheses. As for the experimental part: as §1, §2

T2 sequence (Q9Y2T6 whole entry): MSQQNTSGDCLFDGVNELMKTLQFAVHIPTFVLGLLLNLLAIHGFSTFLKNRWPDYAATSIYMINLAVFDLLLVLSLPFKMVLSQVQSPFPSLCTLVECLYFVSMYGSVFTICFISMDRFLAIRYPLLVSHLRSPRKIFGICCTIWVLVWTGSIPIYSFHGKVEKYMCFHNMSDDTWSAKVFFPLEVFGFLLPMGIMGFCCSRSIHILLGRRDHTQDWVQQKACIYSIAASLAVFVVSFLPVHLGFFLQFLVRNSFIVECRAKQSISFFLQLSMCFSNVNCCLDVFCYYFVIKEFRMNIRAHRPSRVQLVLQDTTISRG
T3 sequence (P21554 whole entry): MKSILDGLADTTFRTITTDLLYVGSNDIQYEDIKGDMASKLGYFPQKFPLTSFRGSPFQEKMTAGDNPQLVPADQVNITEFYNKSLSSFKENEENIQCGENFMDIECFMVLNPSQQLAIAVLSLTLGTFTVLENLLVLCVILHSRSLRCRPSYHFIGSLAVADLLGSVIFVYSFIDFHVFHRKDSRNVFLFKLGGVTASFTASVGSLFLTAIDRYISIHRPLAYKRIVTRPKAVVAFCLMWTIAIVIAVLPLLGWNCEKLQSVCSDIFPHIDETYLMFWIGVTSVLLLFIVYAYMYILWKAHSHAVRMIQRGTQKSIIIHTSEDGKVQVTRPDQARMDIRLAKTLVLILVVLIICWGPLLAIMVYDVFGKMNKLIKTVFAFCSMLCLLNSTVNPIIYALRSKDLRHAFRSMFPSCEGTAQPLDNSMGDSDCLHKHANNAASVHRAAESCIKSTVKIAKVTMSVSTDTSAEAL
T1 sequence (P34972 whole entry): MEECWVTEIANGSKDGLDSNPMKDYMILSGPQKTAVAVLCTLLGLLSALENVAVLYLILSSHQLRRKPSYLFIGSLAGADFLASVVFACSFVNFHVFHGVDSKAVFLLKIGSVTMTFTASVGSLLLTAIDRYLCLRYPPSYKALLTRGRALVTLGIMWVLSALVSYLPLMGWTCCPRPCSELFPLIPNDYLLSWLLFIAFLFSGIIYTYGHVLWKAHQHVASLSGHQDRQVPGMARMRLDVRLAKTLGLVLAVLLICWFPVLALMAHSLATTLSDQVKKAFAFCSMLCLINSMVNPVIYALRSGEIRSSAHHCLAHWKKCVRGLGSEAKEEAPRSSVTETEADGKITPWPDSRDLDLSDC

For `CC[C@H](C)[C@H](NC(=O)c1nn(CCCCCF)c2ccccc12)C(N)=O` (single isomer, unassigned; isomer 2) [compound 26, 5F-ADB-PINACA-isomer 2], the Ki (as a rule, the equilibrium dissociation constant of an inhibitor or competing ligand from its target) amounted to 0.00428 ± 0.00286 µM at human CB2 receptor and 0.0031 ± 0.00153 µM on human CB1 receptor. Also, the concentration giving a half-maximal response (EC50) on human GPR55 and on human GPR18 was > 10 µM each time. Also, the half-maximal inhibitory concentration (IC50) on human GPR55 and at human GPR18 was > 10 µM throughout. Also, the “Human GPR55 % activation” value on human GPR55 (agonist mode) is 2%. In addition, the “Human GPR18 % activation” value at human GPR18 (agonist mode) stood at 8%.
Take `O=C(Nc1cccc2ccccc12)c1cn(Cc2ccc(F)cc2)c2ccccc12` [compound 4, FDU-NNEI]: at human CB2 receptor, the inhibitory constant (Ki) was found to be 0.064 ± 0.015 µM. Besides, on human GPR55, the EC50 – broadly, the concentration at which the effect is half-maximal – is > 10 µM; the half-maximal inhibitory concentration (IC50) (in general, the concentration that gives 50% inhibition) was > 10 µM; the “Human GPR55 % inhibition” value turned out to be 2%. The “Human GPR55 % activation” value on human GPR55 (agonist mode) was determined as 13%. Further, the Ki on human CB1 receptor was 0.00742 ± 0.00251 µM. Besides, on human GPR18, the EC50 is > 10 µM and the 50% inhibitory concentration (IC50) was > 10 µM. Further, the “Human GPR18 % activation” value at human GPR18 (agonist mode) amounted to 20%.
For `CCCCCn1cc(C(=O)N[C@H](C(=O)OC)C(C)C)c2ccccc21` [compound 5, MMB-018], the Ki at human CB2 receptor stood at 0.014 ± 0.0008 µM. Besides, at human GPR55, the EC50 was > 10 µM, the IC50 is > 10 µM and the “Human GPR55 % inhibition” value was 5%. Also, the “Human GPR55 % activation” value on human GPR55 (agonist mode) is 5%. Besides, at human CB1 receptor, the Ki turned out to be 0.0151 ± 0.0059 µM. In addition, at human GPR18, the EC50 is > 10 µM and the 50% inhibitory concentration (IC50) was > 10 µM. For the same compound, the “Human GPR18 % activation” value on human GPR18 (agonist mode) was 13%.
Regarding `CCCCCn1nc(C(=O)N[C@H](C(=O)OC)C(C)C)c2ccccc21` [compound 6, AMB], the inhibition constant (Ki) at human CB2 receptor was found to be 0.000973 ± 0.000104 µM. On human GPR55, the EC50 is > 10 µM, the concentration for half-maximal inhibition (IC50) is > 10 µM and the “Human GPR55 % inhibition” value came to 28%. Also, the “Human GPR55 % activation” value at human GPR55 (agonist mode) is on record as 15%. For the same compound, the Ki at human CB1 receptor was 0.000866 ± 5.7e-05 µM. For the same compound, at human GPR18, the EC50 is > 10 µM and the 50% inhibitory concentration (IC50) was > 10 µM. For the same compound, on human GPR18 (agonist mode), the “Human GPR18 % activation” value was 42%. The “Human GPR18 % inhibition” value at human GPR18 (antagonist mode) stood at 15%.
On to `COC(=O)[C@@H](NC(=O)c1cn(CCCCCF)c2ccccc12)C(C)C` [compound 7, MMB-2201], for which the Ki on human CB2 receptor is 0.0198 ± 0.0042 µM; on human CB1 receptor, 0.0152 ± 0.005 µM. Moreover, the EC50 at human GPR55 and at human GPR18 was > 10 µM in each case. The IC50 on human GPR55 and on human GPR18 was > 10 µM throughout. The “Human GPR55 % activation” value at human GPR55 (agonist mode) came out at 5%. The “Human GPR18 % activation” value on human GPR18 (agonist mode) came out at 2%.
Turning to `CC(C)[C@H](NC(=O)c1nn(CCCCCCl)c2ccccc12)C(N)=O` [compound 17, 5Cl-AB-PINACA], the inhibitory constant (Ki) at human CB2 receptor turned out to be 0.012 ± 0.0017 µM; on human CB1 receptor, 0.00406 ± 0.00195 µM. Besides, the EC50 at human GPR55 and at human GPR18 was > 10 µM each time. In addition, the 50% inhibitory concentration (IC50) on human GPR55 and on human GPR18 was > 10 µM throughout. The “Human GPR55 % activation” value on human GPR55 (agonist mode) came out at 17%. The “Human GPR18 % activation” value on human GPR18 (agonist mode) worked out at 4%. Also, the “Human GPR18 % inhibition” value at human GPR18 (antagonist mode) is reported as 0%.
As to `CC(C)(C)[C@H](NC(=O)c1cn(CC2CCCCC2)c2ccccc12)C(N)=O` [compound 22, ADB-CHMICA], at human CB2 receptor, the inhibitory constant (Ki) amounted to 0.000628 ± 0.000231 µM. In addition, on human GPR55, the EC50 was > 10 µM, the IC50 is > 10 µM and the “Human GPR55 % inhibition” value was determined as 8%. Besides, the “Human GPR55 % activation” value at human GPR55 (agonist mode) is given as 17%. For the same compound, the inhibition constant Ki on human CB1 receptor was 0.00124 ± 0.00036 µM. For the same compound, at human GPR18, the concentration for a half-maximal effect (EC50) is > 10 µM and the half-inhibitory concentration (IC50) was > 10 µM. Further, the “Human GPR18 % activation” value on human GPR18 (agonist mode) was 8%. For the same compound, the “Human GPR18 % inhibition” value at human GPR18 (antagonist mode) came out at 14%.
With `CCCCCn1c2ccccc2c2cc(C(=O)c3cccc4ccccc34)ccc21` [compound 39, EG-018], at human CB2 receptor, the inhibition constant (Ki) is 0.00227 ± 0.00038 µM. In addition, the “Human GPR55 % activation” value on human GPR55 (agonist mode) was determined as 0%. The 50% effective concentration (EC50) was > 10 µM at human GPR55 (agonist mode, read-out: Human GPR55 EC50) and > 10 µM on human GPR18 (agonist mode, read-out: Human GPR18 EC50). In addition, the “Human GPR55 % inhibition” value at human GPR55 was found to be 1%. In addition, the concentration for half-maximal inhibition (IC50) at human GPR55 (antagonist mode versus lysophosphatidylinositol (LPI, 1 µM), read-out: Human GPR55 IC50) is > 10 µM; on human GPR18 (antagonist mode, read-out: Human GPR18 IC50), > 10 µM. In addition, the “Human GPR18 % activation” value at human GPR18 (agonist mode) was determined as 2%.
